Assay results published in US20220194935A1, “PHENETHYL SUBSTITUTED IMIDAZO[4,5-C]QUINOLINE COMPOUNDS WITH AN N-1 BRANCHED GROUP” (3M INNOVATIVE PROPERTIES COMPANY, priority 2019, published 2022).

Test system: Human peripheral blood mononuclear cells (PBMC)
Assay: Cytokine Induction in Human Cells (PBMC), minimum effective concentration
Type: cell-based
Settings: 21-24 hours, lowest concentration giving at least 2× negative control, tested 0.01-30 micromolar; for MEC to Induce Cytokine, IFN-alpha: ELISA; for MEC to Induce Cytokine, IFN-gamma / MEC to Induce Cytokine, TNF-alpha: multiplex bead assay
Experimental: Whole blood was obtained from healthy human donors and collected by venipuncture into vacutainer tubes or syringes containing ethylene diamine tetraacetic acid (EDTA). Human peripheral blood mononuclear cells (PBMC) were purified from the whole blood by density gradient centrifugation. Histopaque 1077 (15 mL, Sigma, St. Louis, Mo.) was transferred to 6×50 mL sterile polypropylene conical tubes. The Histopaque was overlayed with 15-25 mL of blood diluted 1:2 in Hank's Balanced Salts Solution (HBSS) (Gibco, Life Technologies, Grand Island, N.Y.). The tubes were then centrifuged at 1370 revolutions per minute (rpm) for 30 minutes at 20° C., with no brake (400×g, GH 3.8A Rotor).
The interface (buffy coat) containing the PBMC was collected and placed in a new sterile 50 mL conical polypropylene centrifuge tube. The PBMC were mixed with an equal volume of HBSS (about 20 mL from the interface and about 20 mL of HBSS), and then centrifuged at 1090 rpm, 10 minutes, 20° C., with brake (270×g, GH 3.8A Rotor). After completing centrifugation, the cells were resuspended in 2-3mL ACK Red blood cell lysis buffer (ammonium chloride potassium solution, Gibco, Life Technologies) and incubated for 2-5 minutes at 20° C. Next, HBSS (40 mL) was added to the cells, and the sample was centrifuged at 270×g for 10 minutes at 20° C. The supernatant was decanted, and the cell pellet was resuspended in 5 mL AIM V Medium (Gibco, Life Technologies). Cell aggregates and debris were removed by filtering the cell solution through a BD Falcon 70 micron nylon cell strainer (BD Biosciences, San Jose, Calif.).
The number of viable cells was determined by counting with a Miltenyi FACS instrument (Miltenyi Biotec Inc., San Diego, Calif.) or by using a hemacytometer. For determining cell viability with a hemacytometer, the cells were diluted 1/10 in 0.4% trypan blue and HBSS (specifically, 50 microliter of trypan blue +40 microliter of HBSS +10 microliter of cell solution were added to a microfuge tube and mixed). Ten microliters of the diluted cells were then applied to the hemacytometer, and the number of viable PBMC were determined by microscopy.
The PBMC sample was then resuspended in 96-well plates at a concentration of 8×10^5 cells/well in 0.1 mL of AIM-V medium. Each compound was solubilized in dimethyl sulfoxide (DMSO) to create a 3 mM stock solution. The stock solution was then further diluted with AIM-V medium to prepare the serial dilutions. The diluted compound (100 microliters) was then transferred to the PBMCs to produce testing sets with final compound concentrations of 30, 10, 3.3, 1.1, 0.37, 0.12, 0.04, 0.01 micromolar. The plates also had both positive and negative controls. The negative control wells contained only AIM-V medium with no example compound. The positive control wells contained a control set of imiquimod serially diluted to concentrations of 30, 10, 3.3, 1.1, 0.37, 0.12, 0.04, 0.01 micromolar. The concentrations used in the control set were selected to match the concentrations used in the testing set. The plates were then cultured at 37° C./5% CO2 for 21-24 hours. Cell-free supernatants were harvested by centrifuging the 96-well plates at 2100 rpm, 23° C. for 10 minutes. Approximately 160 microliters of the supernatant was then stored in a NUNC 96-well plate, covered with the compression cap and stored at −80° C. until the cytokine analysis was done.
IFN-alpha cytokine levels (picograms/mL) were measured by ELISA (human IFN-alpha, pan specific, Mabtech, Cincinnati, Ohio). IFN-gamma and TNF-alpha levels (picograms/mL) were measured by multiplex bead assay (magnetic beads, R & D Systems, Minneapolis, Minn.) according to the manufacturer's instructions.
Specifically, the minimum effective concentration of each compound (micromolar) was determined as the lowest concentration of the compound that induced a measured cytokine response at a level ([…]) that was at least 2× greater than that observed with the negative control wells.

Compound	MEC to Induce Cytokine, IFN-alpha [µM]	MEC to Induce Cytokine, IFN-gamma [µM]	MEC to Induce Cytokine, TNF-alpha [µM]
Nc1nc2ccccc2c2c1ncn2CCc1ccccc1 [Comparative Example 1, 1-phenethyl-1H-imidazo[4,5-c]quinolin-4-amine, reference compound]	1.1	>30	1.1
CCCCOc1ccc(C[C@@H](CCCC)n2cnc3c(N)nc4ccccc4c32)cc1 [Example 7, 1-[(1R)-1-[(4-butoxyphenyl)methyl]pentyl]imidazo[4,5-c]quinolin-4-amine]	≤0.01	≤0.01	≤0.01
CCOC[C@@H](Cc1ccccc1)n1cnc2c(N)nc3ccccc3c21 [Example 4, 1-[(1R)-1-benzyl-2-ethoxy-ethyl]imidazo[4,5-c]quinolin-4-amine]	0.37	>30	0.37
C[C@H](Cc1ccccc1)n1cnc2c(N)nc3ccccc3c21 [Example 1, 1-[(1R)-1-methyl-2-phenyl-ethyl]imidazo[4,5-c]quinolin-4-amine]	0.37	1.1	0.12
COC[C@H](Cc1ccccc1)n1cnc2c(N)nc3ccccc3c21 [Example 5, 1-[(1S)-1-benzyl-2-methoxy-ethyl]imidazo[4,5-c]quinolin-4-amine]	≤0.01	≤0.01	≤0.01
COC[C@@H](Cc1ccccc1)n1cnc2c(N)nc3ccccc3c21 [Example 3, 1-[(1R)-1-benzyl-2-methoxy-ethyl]imidazo[4,5-c]quinolin-4-amine]	1.1	>30	1.1
CCCC[C@H](Cc1ccccc1)n1cnc2c(N)nc3ccccc3c21 [Example 2, 1-[(1R)-1-benzylpentyl]imidazo[4,5-c]quinolin-4-amine]	≤0.01	≤0.01	≤0.01
CCOC[C@H](Cc1ccccc1)n1cnc2c(N)nc3ccccc3c21 [Example 6, 1-[(1S)-1-benzyl-2-ethoxy-ethyl]imidazo[4,5-c]quinolin-4-amine]	≤0.01	≤0.01	≤0.01
